Results: patent publication US9921215B2, “Method for detecting ligand using FRET biosensor” (KOREA RESEARCH INSTITUTE OF BIOSCIENCE AND BIOTECHNOLOGY, priority 2009, dated 2018)

Columns and labels:
[1] = molecular target: T1, CaraFY-PR arabinose FRET biosensor: fusion protein ECFP-ARBP-EYFP of E. coli MG1655 ARBP (arabinose-binding protein) (Escherichia coli, UniProt P02924); assay: Ligand titration of FRET biosensor CaraFY-PR (arabinose sensor) at its critical temperature; design: 6xHis (C); made in house; host or cells: E. coli
From the text: Likewise, in order to construct an expression vector of CaraFY-PR, a biosensor for measuring arabinose, ECFP gene was amplified by PCR using primers of SEQ ID NOs: 3 and 10, and ARBP gene was amplified by PCR using a chromosomal DNA, extracted from E. coli MG1655, as a template, and primers of SEQ ID NOs: 11 and 12.
The amplified ECFP and ARBP genes were amplified by PCR using primers of SEQ ID NOs: 3 and 12, thus obtaining a synthetic gene of ECFP-ARBP. The ECFP-ARBP gene was inserted into the ECFP-MBP gene position of the pECMY-BII expression vector, thereby constructing a pECaraFY-PR vector.
(§1) The fluorescence of the FRET biosensors was measured using the fluorescence analysis system Cary Eclipse (Varian Inc., Mulgrave, Australia) under the conditions in which the proteins of each biosensor were controlled to the same concentration of 0.5 μM in 0.5 ml of PBS buffer (pH 7.4). […]
(§2) Also, Δratio that defines the detection capability of the FRET biosensor was determined according to the following equation 4: Δratio=ratiomax−ratiomin [Equation 4]
(§3) The titration curves of the FRET biosensors were expressed as Sigmoidal curves using the 4-parameter Hill equation of Sigmaplot 10.0 (Systat software Inc., USA) based on changes in the ratio measured while increasing the ligand concentration from 1 nM to 10 mM. […]
Target sequence in this assay (P02924 other isoform, or with tags, fused parts or gaps): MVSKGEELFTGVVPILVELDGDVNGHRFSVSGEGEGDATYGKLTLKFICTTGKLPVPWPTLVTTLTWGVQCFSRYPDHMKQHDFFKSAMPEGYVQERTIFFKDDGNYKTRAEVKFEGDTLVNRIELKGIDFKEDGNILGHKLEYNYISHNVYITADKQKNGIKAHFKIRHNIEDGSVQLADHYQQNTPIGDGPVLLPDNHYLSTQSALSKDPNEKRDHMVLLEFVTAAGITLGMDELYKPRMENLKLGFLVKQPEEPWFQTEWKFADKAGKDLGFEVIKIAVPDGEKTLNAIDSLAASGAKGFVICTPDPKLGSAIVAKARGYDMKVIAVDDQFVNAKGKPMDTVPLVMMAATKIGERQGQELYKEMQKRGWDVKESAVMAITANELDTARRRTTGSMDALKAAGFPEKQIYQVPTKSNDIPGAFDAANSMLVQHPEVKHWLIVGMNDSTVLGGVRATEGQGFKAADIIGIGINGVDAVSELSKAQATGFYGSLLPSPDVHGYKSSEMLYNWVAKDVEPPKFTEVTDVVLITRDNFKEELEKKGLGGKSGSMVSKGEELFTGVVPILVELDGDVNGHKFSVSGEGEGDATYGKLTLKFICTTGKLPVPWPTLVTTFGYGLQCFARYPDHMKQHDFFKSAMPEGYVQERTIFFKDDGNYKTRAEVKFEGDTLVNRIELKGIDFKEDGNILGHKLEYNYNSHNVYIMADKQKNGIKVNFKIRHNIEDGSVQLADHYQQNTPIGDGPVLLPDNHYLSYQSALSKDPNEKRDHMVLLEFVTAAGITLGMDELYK

[2] = molecular target: T2, CmglBY-SS glucose FRET biosensor: fusion protein ECFP-GGBP-EYFP of E. coli MG1655 GGBP (galactose/glucose-binding protein) (Escherichia coli, UniProt P0AEE5); assay: Specificity of the glucose FRET biosensor for various sugars; conditions: critical temperature 50 °C; ligand 100 μM, 1 mM, 10 mM
Description: (§4) Analysis of the specificities of the FRET biosensors for various ligands was performed using 19 kinds of sugars, including monosaccharides, polyscaccharides and sugar alcohols.
(§5) To measure the specificities of the sensors, each of the purified FRET biosensors was added to 0.5 ml of PBS buffer (pH 7.4) at a concentration of 0.5 μM such that the concentration of each ligand reached 100 μM, 1 mM, 10 mM, etc. In 3 minutes after the peltier device surrounding the cuvette has reached each of the critical temperatures determined in Example 3, fluorescence was measured.
Target sequence in this assay (P0AEE5 24-332 limits assumed): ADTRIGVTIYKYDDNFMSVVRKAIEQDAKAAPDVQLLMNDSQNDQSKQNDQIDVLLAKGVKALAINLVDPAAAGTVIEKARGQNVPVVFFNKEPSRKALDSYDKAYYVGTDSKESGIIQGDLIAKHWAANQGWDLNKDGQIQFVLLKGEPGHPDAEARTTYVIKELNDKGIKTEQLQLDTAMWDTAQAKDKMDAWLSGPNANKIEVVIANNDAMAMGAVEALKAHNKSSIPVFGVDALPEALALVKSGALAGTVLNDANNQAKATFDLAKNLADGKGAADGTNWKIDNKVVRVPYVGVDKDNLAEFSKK

[3] = molecular target: T1, CaraFY-PR arabinose FRET biosensor: fusion protein ECFP-ARBP-EYFP of E. coli MG1655 ARBP (arabinose-binding protein); assay: Specificity of the arabinose FRET biosensor for various sugars; conditions: critical temperature 49 °C; ligand 100 μM, 1 mM, 10 mM
Description: as §4, §5

[4] = molecular target: T2, CmglBY-SS glucose FRET biosensor: fusion protein ECFP-GGBP-EYFP of E. coli MG1655 GGBP (galactose/glucose-binding protein); assay: Ligand titration of FRET biosensor CmglBY-SS (glucose sensor) at its critical temperature; design: 6xHis (C); made in house; host or cells: E. coli
From the text: In addition, an expression vector of CmglBY-SS, a biosensor for measuring glucose used in the present invention, was constructed in the following manner.
First, ECFP gene was amplified by PCR using a pECFP vector as a template and a forward primer of SEQ ID NO: 3 together with a reverse primer of SEQ ID NO: 13 prepared to overlap with the nucleotide sequence of the N-terminus of GGBP. Likewise, GGBP gene was amplified by PCR using a chromosomal DNA, extracted from E. coli MG1655, as a template, and a forward primer of SEQ ID NO: 14 together with a reverse primer of SEQ ID NO: 15 containing a BamHI restriction sequence. […]
as §1, §2, §3
Target sequence in this assay (P0AEE5 24-332 with tags or gaps limits assumed): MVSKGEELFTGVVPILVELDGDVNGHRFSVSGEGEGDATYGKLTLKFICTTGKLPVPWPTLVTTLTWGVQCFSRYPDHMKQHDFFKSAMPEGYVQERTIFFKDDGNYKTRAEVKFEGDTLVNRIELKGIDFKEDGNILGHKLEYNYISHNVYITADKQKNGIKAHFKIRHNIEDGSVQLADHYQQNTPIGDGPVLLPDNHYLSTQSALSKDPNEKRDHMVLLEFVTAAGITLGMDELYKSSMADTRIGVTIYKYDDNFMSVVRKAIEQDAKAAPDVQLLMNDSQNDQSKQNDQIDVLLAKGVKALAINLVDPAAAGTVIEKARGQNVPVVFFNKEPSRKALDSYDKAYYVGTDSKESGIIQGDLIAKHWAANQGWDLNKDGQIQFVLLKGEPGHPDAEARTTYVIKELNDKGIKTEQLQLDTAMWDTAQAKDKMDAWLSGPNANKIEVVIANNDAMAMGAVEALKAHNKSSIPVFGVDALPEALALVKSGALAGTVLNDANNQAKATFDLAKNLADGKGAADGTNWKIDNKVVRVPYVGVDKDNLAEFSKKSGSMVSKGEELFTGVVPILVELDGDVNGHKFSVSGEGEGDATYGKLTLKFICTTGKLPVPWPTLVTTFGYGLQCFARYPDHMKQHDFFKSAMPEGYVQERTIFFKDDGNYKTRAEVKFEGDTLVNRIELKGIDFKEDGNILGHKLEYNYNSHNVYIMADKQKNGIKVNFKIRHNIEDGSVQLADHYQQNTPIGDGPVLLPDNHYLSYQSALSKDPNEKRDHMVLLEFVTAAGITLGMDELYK

[5] = molecular target: CalsBY-QV allose FRET biosensor: fusion protein ECFP-ALBP-EYFP of E. coli MG1655 ALBP (allose-binding protein) (Escherichia coli, UniProt P39265); assay: Specificity of the allose FRET biosensor for various sugars; conditions: critical temperature 49 °C; ligand 100 μM, 1 mM, 10 mM; ribose compared with measurement at 25 °C in U.S. Pat. No. 7,432,353
Description: as §4, §5

[6] = cited from earlier work

Sequence of CalsBY-QV allose FRET biosensor: fusion protein ECFP-ALBP-EYFP of E. coli MG1655 ALBP (allose-binding protein) (P39265 24-311): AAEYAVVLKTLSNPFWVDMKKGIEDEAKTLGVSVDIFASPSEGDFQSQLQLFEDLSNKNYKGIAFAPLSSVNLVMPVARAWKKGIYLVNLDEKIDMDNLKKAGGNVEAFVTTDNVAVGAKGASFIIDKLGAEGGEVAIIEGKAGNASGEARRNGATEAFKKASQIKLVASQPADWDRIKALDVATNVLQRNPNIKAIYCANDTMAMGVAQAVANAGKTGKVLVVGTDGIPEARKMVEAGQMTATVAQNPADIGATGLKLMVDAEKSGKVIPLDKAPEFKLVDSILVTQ

`OC1OC[C@H](O)[C@H](O)[C@H]1O` (stereo partly shown) [arabinose] gave a Kd [1] of 67 ± 4 µM.

For `OC[C@H]1OC(O)[C@H](O)[C@@H](O)[C@H]1O` (stereo partly shown) [galactose], the affinity [2] was “very high affinity” and the affinity [3] was “very high affinity”.

`OC[C@H]1OC(O)[C@H](O)[C@@H](O)[C@@H]1O` (stereo partly shown) [glucose] showed a Kd [4] of 9.2 ± 0.5 µM.

For `OC1OC[C@@H](O)[C@@H](O)[C@H]1O` (stereo partly shown) [ribose], the “specificity for other sugars” value [5] was “reduced specificity”.

B1: ARBP: E. coli periplasmic arabinose-binding protein (protein, UniProt P02924 24-329, looked up)
L-arabinose-binding …: ENLKLGFLVKQPEEPWFQTEWKFADKAGKDLGFEVIKIAVPDGEKTLNAIDSLAASGAKGFVICTPDPKLGSAIVAKARGYDMKVIAVDDQFVNAKGKPMDTVPLVMMAATKIGERQGQELYKEMQKRGWDVKESAVMAITANELDTARRRTTGSMDALKAAGFPEKQIYQVPTKSNDIPGAFDAANSMLVQHPEVKHWLIVGMNDSTVLGGVRATEGQGFKAADIIGIGINGVDAVSELSKAQATGFYGSLLPSPDVHGYKSSEMLYNWVAKDVEPPKFTEVTDVVLITRDNFKEELEKKGLGGK
For B1, the “Unfolding temperature in the presence of ligand” value ([6]; 1 mM arabinose (ARBP) / glucose (GGBP)) is listed as 59 °C and the “Unfolding temperature in the absence of ligand” value ([6]; no arabinose (ARBP) / no glucose (GGBP)) is listed as 53.5 °C.
